Tests used:
AMP = assay: Stern-Volmer time-delayed luminescence quenching titration with AMP; format: binding; details: for Stern-Volmer constant KSV with AMP: excitation 346 nm, time-delay 0.1 ms, probe 10 μM, water, Tris 10 mM, pH 7.0, 20° C., n=3, emission integrated 450-650 nm (Tb) or 550-750 (Eu)
Protocol: (§1) Unless otherwise noted, starting materials were obtained from commercial suppliers and used without further purification. Water was deionized and further purified by a Millipore cartridge system (resistivity 1.8×10^7Ω). All organic extracts were dried over anhydrous MgSO4 and solvents were removed with a rotary evaporator. Flash chromatography was performed on Salicycle Silica Gel (230-400 mesh) or Brockmann activated aluminum oxide (neutral, 60 mesh). ^1H NMR spectra were recorded on a Varian 300 or Varian 500 at 300 MHz or 500 MHz, respectively, and ^13C NMR spectra on a Varian 300 at 75 MHz; the residual solvent peak was used as an internal reference. Data for ^1H NMR are recorded as follows: chemical shift (δ, ppm), multiplicity (s, singlet; br s, broad singlet; d, doublet, t, triplet; q, quartet; m, multiplet), integration, coupling constant (Hz). Data for ^13C NMR are reported in terms of chemical shift (δ, ppm). Mass spectra (LR=lo2w resolution; HR=high resolution; MS-ESI=electrospray mass spectrometry) were recorded on a Bruker BioTOF II. Purity of lanthanide complexes was evaluated by high performance liquid chromatography (HPLC) using a Varian Microsorb 300-5 C18 250 mm×4.6 mm at a flow rate was 1.0 mL/min (see supporting information for spectra and solvent gradients). UV-Vis data was obtained on a Cary Bio 100 UV-Vis Spectrophotometer. Data was collected over the range of 200-800 nm. Fluorescence data was acquired on a Varian Cary Eclipse Fluorescence Spectrophotometer using a quartz cell with a path length of 10 mm, excitation slit width of 5 nm and emission slit width of 5 nm at T=20° C. Solutions were not degased prior to measurement of their luminescence spectra and lifetimes.

[1] = tested on: PKAc, the catalytic domain of protein kinase A; assay: Continuous monitoring of ATP to ADP conversion during phosphorylation of KRRWSAP-NH2 by PKAc; format: biochemical; details: both probes 10 μM, PKAc 1 μM, peptide 1.5 mM, ATP 1 mM, 37° C., 0-6 hours; Tb at 490 and 545 nm, Eu at 688 and 700 nm
Protocol: FIG. 29 illustrates an exemplary embodiment of continuous monitoring of ATP to ADP conversion during enzymatic phosphorylation of the peptide KRRWSAP-NH2 by its kinase PKAc. Experimental conditions: [Tb-DOTAm-Phen]^3+=10 μM, Eu-DOTA-Phen=10 μM, [PKAc]=1 μM, [amide-blocked KRRWSAP-NH2]=1.5 mM, [ATP]=1 mM, [Tris]=10 mM, [Brij-35]=0.05%, [MgCl2]=50 mM, [EGTA]=5 mM, [DTT]=2 mM, pH 7.0, T=37° C., excitation at 346 nm, time delay=0.1 ms. Reaction time: 0-6 hours.
The ability of the two lanthanide probes to monitor enzymatic reactions involving ATP or GTP directly and continuously was evaluated with PKAc, the catalytic domain of protein kinase A. PKAc is a serine-threonine protein kinase that is actively studied as a biological target in cancer therapy (Naviglio et al., Expert Opin. Ther. Targets, 2009, 13, 83-92). […] Phosphorylation of the substrate and conversion of ATP to ADP takes place only when all components are present in the buffer. […] [Tb-DOTAm-Phen]^3+ and Eu-DOTA-Phen are thus able to directly monitor kinases' activities by time-gated luminescence spectroscopy. […] It should be noted, however, that these probes are not intended for use in cells as the presence of more than two purine nucleotides would make the results hard to interpret.

UMP = assay: Stern-Volmer time-delayed luminescence quenching titration with UMP; format: binding; details: excitation 346 nm, time-delay 0.1 ms, probe 10 μM, water, Tris 10 mM, pH 7.0, 20° C., n=3, emission integrated 450-650 nm (Tb) or 550-750 (Eu)
Protocol: as §1

ADP = assay: Stern-Volmer time-delayed luminescence quenching titration with ADP; format: binding; details: for Stern-Volmer constant KSV with ADP: excitation 346 nm, time-delay 0.1 ms, probe 10 μM, water, Tris 10 mM, pH 7.0, 20° C., n=3, emission integrated 450-650 nm (Tb) or 550-750 (Eu)
Protocol: as §1

CDP = assay: Stern-Volmer time-delayed luminescence quenching titration with CDP; format: binding; details: excitation 346 nm, time-delay 0.1 ms, probe 10 μM, water, Tris 10 mM, pH 7.0, 20° C., n=3, emission integrated 450-650 nm (Tb) or 550-750 (Eu)
Protocol: as §1

GDP = assay: Stern-Volmer time-delayed luminescence quenching titration with GDP; format: binding; details: excitation 346 nm, time-delay 0.1 ms, probe 10 μM, water, Tris 10 mM, pH 7.0, 20° C., n=3, emission integrated 450-650 nm (Tb) or 550-750 (Eu)
Protocol: as §1

GMP = assay: Stern-Volmer time-delayed luminescence quenching titration with GMP; format: binding; details: excitation 346 nm, time-delay 0.1 ms, probe 10 μM, water, Tris 10 mM, pH 7.0, 20° C., n=3, emission integrated 450-650 nm (Tb) or 550-750 (Eu)
Protocol: as §1

UTP = assay: Stern-Volmer time-delayed luminescence quenching titration with UTP; format: binding; details: excitation 346 nm, time-delay 0.1 ms, probe 10 μM, water, Tris 10 mM, pH 7.0, 20° C., n=3, emission integrated 450-650 nm (Tb) or 550-750 (Eu)
Protocol: as §1

ATP = assay: Stern-Volmer time-delayed luminescence quenching titration with ATP; format: binding; details: for Stern-Volmer constant KSV with ATP: excitation 346 nm, time-delay 0.1 ms, probe 10 μM, water, Tris 10 mM, pH 7.0, 20° C., n=3, emission integrated 450-650 nm (Tb) or 550-750 (Eu); for log KSV for ATP: from Stern-Volmer constants of Table 2
Protocol: as §1

UDP = assay: Stern-Volmer time-delayed luminescence quenching titration with UDP; format: binding; details: excitation 346 nm, time-delay 0.1 ms, probe 10 μM, water, Tris 10 mM, pH 7.0, 20° C., n=3, emission integrated 450-650 nm (Tb) or 550-750 (Eu)
Protocol: as §1

CTP = assay: Stern-Volmer time-delayed luminescence quenching titration with CTP; format: binding; details: excitation 346 nm, time-delay 0.1 ms, probe 10 μM, water, Tris 10 mM, pH 7.0, 20° C., n=3, emission integrated 450-650 nm (Tb) or 550-750 (Eu)
Protocol: as §1

CMP = assay: Stern-Volmer time-delayed luminescence quenching titration with CMP; format: binding; details: excitation 346 nm, time-delay 0.1 ms, probe 10 μM, water, Tris 10 mM, pH 7.0, 20° C., n=3, emission integrated 450-650 nm (Tb) or 550-750 (Eu)
Protocol: as §1

GTP = assay: Stern-Volmer time-delayed luminescence quenching titration with GTP; format: binding; details: for Stern-Volmer constant KSV with GTP: excitation 346 nm, time-delay 0.1 ms, probe 10 μM, water, Tris 10 mM, pH 7.0, 20° C., n=3, emission integrated 450-650 nm (Tb) or 550-750 (Eu)
Protocol: as §1

[2] = Dickins et al., J. Am. Chem. Soc., 2002; cited from earlier work

Compound | Stern-Volmer constant KSV with AMP (AMP) | time-gated luminescence as the PKAc reaction proceeds (ADP:ATP ratio increases) [1] | Stern-Volmer constant KSV with UMP (UMP) | Stern-Volmer constant KSV with ADP (ADP) | Stern-Volmer constant KSV with CDP (CDP) | Stern-Volmer constant KSV with GDP (GDP) | Stern-Volmer constant KSV with GMP (GMP) | Stern-Volmer constant KSV with UTP (UTP) | Stern-Volmer constant KSV with ATP (ATP) | log KSV for ATP (ATP) | Stern-Volmer constant KSV with UDP (UDP) | Stern-Volmer constant KSV with CTP (CTP) | Stern-Volmer constant KSV with CMP (CMP) | Stern-Volmer constant KSV with GTP (GTP) | further results
Tb-PhenDOTAm | 0.397 ± 0.005 | increases | 0.070 ± 0.004 | 0.85 ± 0.02 | 0.149 ± 0.009 | 9.84 ± 0.05 | 2.84 ± 0.01 | 0.047 ± 0.002 | 1.28 ± 0.05 | 0.11 | 0.065 ± 0.007 | 0.103 ± 0.007 | 0.139 ± 0.006 | 33.1 ± 0.1 | phosphorescence quenched by AMP (AMP; 1 mM AMP): 31.0%; Stern-Volmer constant KSV with AMP (AMP; listed as [Tb-DOTAm-Phen]^3+): 0.397(5); Stern-Volmer constant KSV with UMP (UMP; listed as [Tb-DOTAm-Phen]^3+): 0.070(4); phosphorescence quenched by ADP (ADP; 1 mM ADP): 47.4%; Stern-Volmer constant KSV with ADP (ADP; listed as [Tb-DOTAm-Phen]^3+): 0.85(2); Stern-Volmer constant KSV with CDP (CDP; listed as [Tb-DOTAm-Phen]^3+): 0.149(9); Stern-Volmer constant KSV with GDP (GDP; listed as [Tb-DOTAm-Phen]^3+): 9.84(5); Stern-Volmer constant KSV with GMP (GMP; listed as [Tb-DOTAm-Phen]^3+): 2.84(1); Stern-Volmer constant KSV with UTP (UTP; listed as [Tb-DOTAm-Phen]^3+): 0.047(2); time-gated luminescence quenched by ATP (ATP; 1 mM ATP): 59.7%; Stern-Volmer constant KSV with ATP (ATP; listed as [Tb-DOTAm-Phen]^3+): 1.28(5); Stern-Volmer constant KSV with UDP (UDP; listed as [Tb-DOTAm-Phen]^3+): 0.065(7); Stern-Volmer constant KSV with CTP (CTP; listed as [Tb-DOTAm-Phen]^3+): 0.103(7); Stern-Volmer constant KSV with CMP (CMP; listed as [Tb-DOTAm-Phen]^3+): 0.139(6); increase of apparent binding affinity for GTP over that of the neutral complex (12) (GTP; +3 charged probe (1) versus neutral complex (12)): 300 fold; Stern-Volmer constant KSV with GTP (GTP; listed as [Tb-DOTAm-Phen]^3+): 33.1(1)
Eu-DOTA-Phen | 0.053(1) | remains constant | 0.007(2) | 0.058(1) | 0.008(1) | 0.164(3) | 0.118(2) | 0.001(2) | 0.065(1) | −1.2 | 0.002(2) | 0.006(1) | 0.008(1) | 0.099(1) | 
O=C([O-])CN1CCN(CC(=O)[O-])CCN(CC(=O)O)CCN(CC(=O)[O-])CC1.[Gd+3] [Gd-DOTA] |  |  |  |  |  |  |  |  |  |  |  |  |  |  | log Ka with biphosphate [2]: 2.2
